Where a name gives a salt, the structure may show the parent alone.
molecular target: human α7 nAChRs transiently expressed in Xenopus laevis oocytes (Homo sapiens (Human), UniProt P36544); assay: Oocyte electrophysiology screen (TEVC); assay type: cell-based; conditions: 0.01 mM test compound, peak current relative to 0.2 mM ACh
Protocol: Oocyte Electrophysiology Screen (% ACh @ 10 μM Oocyte)
The Oocyte Electrophysiology Screen studies were performed under contract by HiQScreen Geneva, Switzerland. All experiments were carried out at human α7 nAChRs transiently expressed in Xenopus laevis oocytes using the method of cDNA expression. Currents evoked by acetylcholine or other agonist ligands were recorded using the standard two-electrode voltage-clamp configuration (TEVC). X. laevis oocytes were prepared and injected using standard procedures. Briefly, ovaries were harvested from X. laevis females that were deeply anesthetized and pithed following the animal rights rule from the Geneva canton. A small piece of ovary was isolated for immediate preparation while the remaining part was placed at 4° C. in a sterile Barth solution containing in mM: NaCl 88, KCl 1, NaHCO3 2.4, HEPES 10, MgSO4.7H2O 0.82, Ca(NO3)2.4H2O 0.33, CaCl2.6H2O 0.41, at pH 7.4, and supplemented with 20 μg/mL of kanamycin, 100 unit/mL penicillin and 100 μg/mL streptomycin. […] Cells were held at −80 mV. Data were filtered at 10 Hz, captured at 100 Hz and analyzed using proprietary data acquisition and analysis software running under Matlab (Mathworks Inc.).
Experimental Protocol and Analysis
After establishing a baseline transmembrane current, acetylcholine (ACh) was applied for 5 seconds at a concentration of 0.2 mM to establish a control ACh-evoked current response. Following a wash period of 90 s in OR2 medium (free of ACh), cells were then exposed for 30 s to the test compound applied at 0.01 mM. The same reference ACh test pulse was immediately given at the end of the compound exposure and again after 90 s of recovery in OR2 Medium (free of ACh or test compound). All data were determined in triplicate. The response evoked by the test compound was expressed as a percentage of that evoked by ACh: Response (% ACh)=100×(Itest/IACh) where Itest is the peak inward current measured during exposure to 0.01 mM of test compound and IACh is the peak inward current measured in the presence of ACh.

Chain of human α7 nAChRs transiently expressed in Xenopus laevis oocytes (P36544 23-502 limits assumed): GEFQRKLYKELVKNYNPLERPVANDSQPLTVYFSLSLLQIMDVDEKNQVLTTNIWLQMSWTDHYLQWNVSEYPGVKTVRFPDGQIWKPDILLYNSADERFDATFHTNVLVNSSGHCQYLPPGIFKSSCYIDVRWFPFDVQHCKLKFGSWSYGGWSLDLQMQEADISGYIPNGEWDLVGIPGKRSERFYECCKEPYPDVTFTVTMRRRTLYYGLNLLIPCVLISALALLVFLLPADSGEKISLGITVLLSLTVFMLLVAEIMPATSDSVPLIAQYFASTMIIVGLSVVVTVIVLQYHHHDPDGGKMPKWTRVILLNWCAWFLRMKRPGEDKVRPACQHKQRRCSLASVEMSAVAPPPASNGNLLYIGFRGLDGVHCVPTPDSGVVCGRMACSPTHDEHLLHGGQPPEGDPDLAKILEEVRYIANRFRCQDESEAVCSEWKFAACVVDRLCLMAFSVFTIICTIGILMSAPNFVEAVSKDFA

Structure (SMILES)	% ACh @ 10 μM Oocyte
O=C(NC1C2CCN(CC2)C12CC2)c1cc2ccc(C(F)(F)F)cc2s1 (single isomer, unassigned; enantiomer1) [63a, N-(1′-azaspiro[cyclopropane-1,2′-bicyclo[2.2.2]octan]-3′-yl)-6-(trifluoromethyl)benzo[b]thiophene-2-carboxamide-enantiomer1]	3 % ACh
O=C(NC1C2CCN(CC2)C12CC2)c1cc2cc(Cl)c(Cl)cc2s1 (single isomer, unassigned; enantiomer1) [67a, 5,6-dichloro-N-(1′-azaspiro[cyclopropane-1,2′-bicyclo[2.2.2]octan]-3′-yl)benzo[b]thiophene-2-carboxamide-enantiomer1 hydrochloride]	1 % ACh

same assay, conditions: 0.01 mM test compound, peak current relative to 0.2 mM ACh; hydrochloride

Structure (SMILES)	% ACh @ 10 μM Oocyte
CC1(C)C(NC(=O)c2cc3ccccc3s2)C2CCN1CC2 (single isomer, unassigned; enantiomer1) [1a, N-(2,2-dimethylquinuclidin-3-yl)benzo[b]thiophene-2-carboxamide-enantiomer1 hydrochloride]	1470 % ACh
O=C(NC1C2CCN(CC2)C12CC2)c1cc2ccccc2s1 (single isomer, unassigned; enantiomer1) [54a, N-(1′-azaspiro[cyclopropane-1,2′-bicyclo[2.2.2]octan]-3′-yl)benzo[b]thiophene-2-carboxamide-enantiomer1 hydrochloride]	4.5 % ACh
O=C(NC1C2CCN(CC2)C12CC2)c1cc2cccc(F)c2s1 (single isomer, unassigned; enantiomer1) [57a, 7-fluoro-N-(1′-azaspiro[cyclopropane-1,2′-bicyclo[2.2.2]octan]-3′-yl)benzo[b]thiophene-2-carboxamide-enantiomer1 hydrochloride]	386 % ACh
Nc1ccc2cc(C(=O)NC3C4CCN(CC4)C34CC4)sc2c1 (single isomer, unassigned; enantiomer1) [62a, 6-amino-N-(1′-azaspiro[cyclopropane-1,2′-bicyclo[2.2.2]octan]-3′-yl)benzo[b]thiophene-2-carboxamide-enantiomer1 hydrochloride]	35 % ACh
O=C(NC1C2CCN(CC2)C12CC2)c1cc2cc(Cl)ccc2s1 (single isomer, unassigned; enantiomer1) [66a, 5-chloro-N-(1′-azaspiro[cyclopropane-1,2′-bicyclo[2.2.2]octan]-3′-yl)benzo[b]thiophene-2-carboxamide-enantiomer1 hydrochloride]	2 % ACh
O=C(NC1C2CCN(CC2)C12CC2)c1cc2cc(Cl)ccc2s1 (single isomer, unassigned; enantiomer1) [66b, 5-chloro-N-(1′-azaspiro[cyclopropane-1,2′-bicyclo[2.2.2]octan]-3′-yl)benzo[b]thiophene-2-carboxamide-enantiomer1 hydrochloride]	29 % ACh
Cc1ccc2sc(C(=O)NC3C4CCN(CC4)C34CC4)cc2c1 (single isomer, unassigned; enantiomer1) [69a, 5-methyl-N-(1′-azaspiro[cyclopropane-1,2′-bicyclo[2.2.2]octan]-3′-yl)benzo[b]thiophene-2-carboxamide-enantiomer1 hydrochloride]	162 % ACh
O=C(NC1C2CCN(CC2)C12CC2)c1cc2cc(C(F)(F)F)ccc2s1 (single isomer, unassigned; enantiomer1) [70a, N-(1′-azaspiro[cyclopropane-1,2′-bicyclo[2.2.2]octan]-3′-yl)-5-(trifluoromethyl)benzo[b]thiophene-2-carboxamide-enantiomer1 hydrochloride]	2 % ACh
O=C(NC1C2CCN(CC2)C12CC2)c1cc2ccc(C3CC3)cc2s1 (single isomer, unassigned; enantiomer1) [71a, 6-cyclopropyl-N-(1′-azaspiro[cyclopropane-1,2′-bicyclo[2.2.2]octan]-3′-yl)benzo[b]thiophene-2-carboxamide-enantiomer1 hydrochloride]	739 % ACh

Reference: US10183938B2, “Geminal substituted quinuclidine amide compounds as agonists of α-7 nicotonic acetylcholine receptors” (AXOVANT SCIENCES GMBH, priority 2014, dated 2019)
